Measurements taken from patent US20080312305A1, “Imidazoles as Gaba- B Receptor Modulators” (priority 2005, published 2008).

Molecular target: T1, GABAB receptor (GABABR1a/GABABR2) (Homo sapiens, UniProt O75899+Q9UBS5)
T1 construct: expressed in transfected cells; membranes prepared from the cells
Assay: [35S]-GTPγS binding assay, potency of positive allosteric modulator on GABA EC50
Format: biochemical
Conditions: potency of the positive allosteric modulator (log EC50 for GABA plotted against log modulator concentration)
Source text: GABABR1a and GABABR2 were cloned from human brain cDNA and subcloned into pCI-Neo (Promega) and pALTER-1 (Promega), respectively. A GABABR1a-Gαqi5 fusion protein expression vector was constructed using the pCI-Neo-GABABR1a cDNA plasmid and pLEC1-Gαqi5 (Molecular Devices, Calif.). In order to make the Gαqi5 pertussis toxin insensitive, Cys356 was mutated to Gly using standard PCR methodology with the primers 5′-[…]-3′ (forward) and 5′-GCGGCCG […]-3′ (reverse). The Gαqi5mut cDNA was ligated into the BamHI and NotI sites of pcDNA3.0 (Invitrogen). The GABABR1a coding sequence was amplified by PCR from pCI-Neo-GABABR1a using the primers, 5′-[…]-3′ (forward) and 5′-[…]-3′ (reverse) and subcloned into the BamHI site of pcDNA3.0-Gαqi5mut.
For generation of stable cell lines, CHO-K1 cells were grown in Nut mix F-12 (Ham) media supplemented with 10% FBS, 100 U/ml Penicillin and 100 μg/ml Streptomycin at 37° C. in a humidified CO2-incubator. […]
[^35S]-GTPγS binding assays were performed at 30° C. for 45 min in membrane buffer (100 mM NaCl, […], 1 mM EDTA, 50 mM HEPES, pH 7.4) containing 0.025 μg/μl of membrane protein (prepared from the cell lines described above) with 0.01% bovine serum albumin (fatty acid free), 10 μM GDP, 100 μM DTT and 0.53 nM [^35S]-GTPγS (Amersham-Pharmacia Biotech) in a final volume of 200 μl. Non-specific binding was determined in the presence of 20 μM GTPγS. […]

T1 sequence (Q9UBS5 15-961 limits assumed): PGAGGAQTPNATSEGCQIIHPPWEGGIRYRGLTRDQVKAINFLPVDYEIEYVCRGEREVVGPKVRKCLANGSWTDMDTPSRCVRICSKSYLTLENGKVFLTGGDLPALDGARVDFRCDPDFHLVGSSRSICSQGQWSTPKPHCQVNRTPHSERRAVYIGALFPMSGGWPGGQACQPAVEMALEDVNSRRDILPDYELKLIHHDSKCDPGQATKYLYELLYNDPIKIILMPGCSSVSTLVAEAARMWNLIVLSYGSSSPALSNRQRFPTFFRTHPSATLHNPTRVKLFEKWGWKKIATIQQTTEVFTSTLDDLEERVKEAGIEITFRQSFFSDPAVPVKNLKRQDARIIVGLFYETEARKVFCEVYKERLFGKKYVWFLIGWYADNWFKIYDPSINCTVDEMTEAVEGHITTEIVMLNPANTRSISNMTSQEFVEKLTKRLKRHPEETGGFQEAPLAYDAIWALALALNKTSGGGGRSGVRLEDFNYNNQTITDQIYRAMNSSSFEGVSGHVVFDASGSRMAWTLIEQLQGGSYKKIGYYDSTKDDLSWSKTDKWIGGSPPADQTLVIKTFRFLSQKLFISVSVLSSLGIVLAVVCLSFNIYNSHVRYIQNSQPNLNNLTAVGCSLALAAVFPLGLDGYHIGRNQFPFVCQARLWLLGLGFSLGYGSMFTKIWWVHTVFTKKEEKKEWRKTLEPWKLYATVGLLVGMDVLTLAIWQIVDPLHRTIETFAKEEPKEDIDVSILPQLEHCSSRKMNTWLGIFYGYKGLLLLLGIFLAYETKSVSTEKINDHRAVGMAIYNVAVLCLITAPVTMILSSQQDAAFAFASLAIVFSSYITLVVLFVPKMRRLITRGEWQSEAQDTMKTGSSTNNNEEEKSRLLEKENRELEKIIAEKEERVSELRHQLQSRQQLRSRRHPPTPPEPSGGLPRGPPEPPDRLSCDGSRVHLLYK
T1 sequence (O75899 42-941): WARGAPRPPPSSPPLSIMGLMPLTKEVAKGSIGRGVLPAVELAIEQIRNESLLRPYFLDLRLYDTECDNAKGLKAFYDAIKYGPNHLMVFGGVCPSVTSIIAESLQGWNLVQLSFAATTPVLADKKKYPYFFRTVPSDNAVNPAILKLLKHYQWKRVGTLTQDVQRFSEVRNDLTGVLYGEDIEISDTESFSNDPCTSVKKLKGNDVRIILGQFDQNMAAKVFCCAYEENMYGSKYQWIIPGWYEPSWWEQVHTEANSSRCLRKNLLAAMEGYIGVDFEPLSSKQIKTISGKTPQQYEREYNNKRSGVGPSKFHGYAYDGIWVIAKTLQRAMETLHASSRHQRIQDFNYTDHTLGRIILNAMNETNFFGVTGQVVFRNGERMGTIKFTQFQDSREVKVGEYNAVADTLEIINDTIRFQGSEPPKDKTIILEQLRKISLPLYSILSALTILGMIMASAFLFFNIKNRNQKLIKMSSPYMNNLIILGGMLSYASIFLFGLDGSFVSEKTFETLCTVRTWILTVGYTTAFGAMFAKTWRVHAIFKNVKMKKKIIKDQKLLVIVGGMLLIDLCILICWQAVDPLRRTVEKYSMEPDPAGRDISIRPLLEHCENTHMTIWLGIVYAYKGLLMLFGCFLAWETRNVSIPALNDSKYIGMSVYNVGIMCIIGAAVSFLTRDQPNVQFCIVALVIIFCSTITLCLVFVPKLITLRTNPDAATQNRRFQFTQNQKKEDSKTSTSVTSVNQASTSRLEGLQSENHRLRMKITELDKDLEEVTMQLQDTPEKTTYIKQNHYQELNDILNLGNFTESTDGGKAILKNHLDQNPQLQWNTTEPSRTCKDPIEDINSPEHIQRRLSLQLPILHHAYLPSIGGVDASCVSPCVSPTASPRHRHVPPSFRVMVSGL

EC50 [µM]	Compound
3.68	CCCc1nc(NC(=O)C2COc3ccccc3O2)c(C(=O)OC(C)(C)C)n1CC(C)C (centres unmarked) [Example 21, Tert-butyl 4-[(2,3-dihydro-1,4-benzodioxin-2-ylcarbonyl)amino]-1-isobutyl-2-propyl-1H-imidazole-5-carboxylate]
5.54	CCCc1nc(NC(=O)C2COc3ccccc3O2)c(C(=O)OCC)n1CC(C)C (centres unmarked) [Example 25, Ethyl 4-[(2,3-dihydro-1,4-benzodioxin-2-ylcarbonyl)amino]-1-isobutyl-2-propyl-1H-imidazole-5-carboxylate]
